Reference: US11806402B2, “Sulfoalkyl ether cyclodextrin compositions” (CyDex Pharmaceuticals, Inc., priority 2008, dated 2023)

Test: Assay and impurity analysis (HPLC) of heat-stressed SBE6.6-β-CD/glucocorticosteroid (budesonide) formulation
Format: physicochemical
Conditions: glucocorticosteroid standard, no SBE6.6-β-CD lot
Experimental: Comparative evaluation of the stability of various lots of SBE6.6-β-CD that underwent a single or a double treatment with activated carbon (according to Examples 27 and 24, respectively) were formulated with a glucocorticosteroid (budesonide) and an excipient (water), and were examined by HPLC. The general procedure is provided below.
SBE6.6-β-CD solutions (7.5% w/w, formulated with SBE6.6-β-CD Lot Nos. 17CX01.HQ00025, 17CX01.HQ00029 and 17CX01.HQ00041), were prepared by dissolving about 7.5 grams of SBE6.6-β-CD (corrected for water content) in 100 mL of water. A glucocorticosteroid was weighed in amounts in excess of the anticipated solubilities directly into TEFLON®-lined screw-capped containers. Approximately 275 μg/mL of the glucocorticoid steroid was vigorously stirred for 2 hours in an amber glass container. At the end of the agitation time, the glucocorticosteroid solution was filtered using a 0.24 μm syringe filter.
Control solution samples were removed before autoclaving. Aliquots of the solutions were autoclaved for four 20 minute cycles at 121° C. The samples were then analyzed by HPLC to determine assay content and the level of impurities formed during the heating cycles. Solution samples of SBE6.6-β-CD were prepared and analyzed on a PERKIN ELMER Lambda 35 UV/Vis spectrophotometer, scanning from 190 nm to 400 nm at a speed of 240 nm/min and a slit width of 1.0 nm to determine the UV content.

CCCC1O[C@@H]2C[C@H]3[C@@H]4CCC5=CC(=O)C=C[C@]5(C)[C@H]4[C@@H](O)C[C@]3(C)[C@]2(C(=O)CO)O1 (stereo partly drawn) [Glucocorticosteroid (“GS”) Std., budesonide]
Assay GS Total: 99.385 Area % | Assay R-GS: 51.888 Area % | Assay S-GS: 47.497 Area % | Assay Δ: 0% | Impurities A: 0.001 Area % | Impurities B (S-11-keto-derivative): 0.127 Area %
